In one assay the target is T1, albumin of beef serum (Bos taurus, UniProt P02769).
T1 construct: albumin of beef serum; from tissue; host or cells: beef serum
The assay can be described thus: protective effect on protein denaturation from UV rays (method of Silvestrini et al.). In kind it is biochemical. As to conditions: for inhibition at 50 µM: molar conc. .00005; for inhibition at 200 µM: molar conc. .0002. How it is done:
The Compounds of formulas I and II were tested under experimental conditions designed to show the protective effect on protein denaturation from UV rays according to the method of Silvestrini et al. (Int. J. Tiss. Reac. 5, 217-225, 1983) which comprises the measurement of the protective action of the compound under examination on the denaturation of the albumin of beef serum submitted to UV rays for 30 minutes.

The test system of assay [1] is bilateral senile cataract. The assay is described as follows: preliminary tests on man: cataract therapy for three months, oral or topical. It is filed as in vivo. To be noted: 10 patients. How it is done: Preliminary tests on man confirmed the action of Compound II in cataract therapy.
Two groups of 10 patients afflicted by bilateral senile cataract with cortical or subcapsular or cortinuclear localization, in the initial evolutive stage, without fundus alterations and with a distant visus from 5 to 9 tenths (after correction of any refraction error) were treated for three months with Compound II orally (100 mg tablet; 1 tablet, three times a day) and topically (0.1% collyrium; 1 drop in the conjunctival sac of each eye three times a day) respectively.
The effect of the treatment was evaluated by monitoring the variations in the visus, in the refraction error, and in lenticular opacity (by biomicroscopy with a slit lamp and by ophthalmoscopy).

[2] abbreviates: orally, 100 mg tablet three times a day.
Setting [3] is: topically, 0.1% collyrium, 1 drop in each eye three times a day.
The mark [4] stands for this setting: UV rays for 30 minutes, read-out: % INHIBITION MEAN.
[5] abbreviates: single determinations, UV rays for 30 minutes, read-out: % INHIBITION

From patent EP0191520A1, “(1-phenylmethyl-5-hydroxy-1H-indazol-3-yl)-oxyacetic acid and salts thereof for use as a medicament, and pharmaceutical compositions containing them” (AZIENDE CHIMICHE RIUNITE ANGELINI FRANCESCO A.C.R.A.F. …, priority 1985, dated 1986) come the findings set out here.

Read-outs that look alike come from different tables or passages of the source.

T1 sequence (P02769 25-607): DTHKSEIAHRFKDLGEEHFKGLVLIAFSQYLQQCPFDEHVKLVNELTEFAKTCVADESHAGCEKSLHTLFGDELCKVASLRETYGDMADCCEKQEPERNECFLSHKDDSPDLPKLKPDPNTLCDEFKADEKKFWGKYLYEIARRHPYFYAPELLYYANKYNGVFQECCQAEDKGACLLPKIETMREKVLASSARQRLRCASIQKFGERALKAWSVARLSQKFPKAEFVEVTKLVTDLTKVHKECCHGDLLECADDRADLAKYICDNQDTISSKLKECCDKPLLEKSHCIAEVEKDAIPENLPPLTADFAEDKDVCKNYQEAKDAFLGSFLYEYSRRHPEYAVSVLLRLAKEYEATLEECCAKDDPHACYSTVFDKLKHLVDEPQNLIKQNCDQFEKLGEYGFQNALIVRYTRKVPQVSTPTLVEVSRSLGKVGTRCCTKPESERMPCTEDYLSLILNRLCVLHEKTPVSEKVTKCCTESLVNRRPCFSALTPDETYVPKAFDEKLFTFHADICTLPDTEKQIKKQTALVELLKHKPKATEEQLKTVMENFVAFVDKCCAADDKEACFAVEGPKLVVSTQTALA

For the compound `O=C(O)COc1nn(Cc2ccccc2)c2ccccc12` [Compound I, bendazac lysinate, reference compound], the inhibition at 250 µM against albumin of beef serum (molar conc. .00025, UV rays for 30 minutes) stood at 12%. On albumin of beef serum (molar conc. .0005, UV rays for 30 minutes), testing at 500 µM gave an inhibition of 21%. 1000 µM produced 42% inhibition against albumin of beef serum (molar conc. .001, UV rays for 30 minutes). On albumin of beef serum (molar conc. .002, UV rays for 30 minutes), this compound showed an inhibition at 2000 µM of 61%.

Consider `O=C(O)COc1nn(Cc2ccccc2)c2ccc(O)cc12` [Compound II, (5-hydroxy-1-benzyl)-indazolyl-3-oxyacetic acid], for which, in assay [1] (setting [2]), the opacity decreased is recorded as 6 eyes, the opacity increased was 1 eye, the opacity remained unchanged turned out to be 13 eyes and the “overall clinical judgement: patients improved” value was 7 patients. Besides, in assay [1] (setting [2]), the “overall clinical judgement: remained unchanged” value is recorded as 2 patients and the “overall clinical judgement: worsened slightly” value was “one”. The “overall clinical judgement: patients improved greatly” value in assay [1] (orally, 100 mg tablet three times a day, part of the 7 improved) was 4 patients. Further, the “mean visus value increased” value in assay [1] (orally, 100 mg tablet three times a day, t = 3.58, P < 0.01) is 16.79%. Further, in assay [1] (setting [3]), the opacity decreased was found to be 7 eyes, the opacity increased stood at 2 eyes, the opacity remained unchanged is 11 eyes and the “overall clinical judgement: patients improved” value worked out at 4 patients. Moreover, in assay [1] (setting [3]), the “overall clinical judgement: remained unchanged” value came to 5 patients and the “overall clinical judgement: worsened” value is given as “one”. The “mean visus value increased” value in assay [1] (topically, 0.1% collyrium, 1 drop in each eye three times a day, t = 2.54, P < 0.05) is given as 12.78%. Further, at albumin of beef serum (setting [4]), the inhibition at 50 µM was 10% and the inhibition at 200 µM came out at 92%. Further, on albumin of beef serum (setting [5]), the inhibition at 50 µM lay in the range of 8 to 13% and the inhibition at 200 µM was 85 to 100%. This compound yielded an inhibition at 100 µM on albumin of beef serum (molar conc. .0001, UV rays for 30 minutes) of 77%. For the same compound, the “times as active as Compound I” value at albumin of beef serum (relative activity versus Compound I in this test) is “at least 10 times”.
